Measured values reported in ChEMBL document CHEMBL1201862, “PubChem BioAssay data set” (2004).
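Test compounds were applied to cells in 96-well plates for 48 hours at 5 doses. GI50 is the concentration that inhibits growth by half.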 Activity calls are given as the source filed them. No stated cut-off is given here; in the data, active = GI50 up to about 1.1 µM and inactive = higher. Residues, ends and D or L forms follow the SMILES beside them.

Experiments:
Assay in all cases: NCI anticancer screen, dose series, 48 h
786-0 = tested on: 786-0
A549 = tested on: A549
TK-10 = tested on: TK-10
SK-MEL-28 = tested on: SK-MEL-28
OVCAR-3 = tested on: OVCAR-3
HCT-116 = tested on: HCT-116
Hs-578T = tested on: Hs-578T
CCRF-CEM = tested on: CCRF-CEM
NCI-H460 = tested on: NCI-H460
SK-MEL-5 = tested on: SK-MEL-5
HCC 2998 = tested on: HCC 2998
SF-539 = tested on: SF-539
K562 = tested on: K562
MOLT-4 = tested on: MOLT-4
SK-OV-3 = tested on: SK-OV-3
SF-268 = tested on: SF-268
U-251 = tested on: U-251
SNB-19 = tested on: SNB-19
MDA-N = tested on: MDA-N
COLO 205 = tested on: COLO 205
SF-295 = tested on: SF-295
MCF7 = tested on: MCF7
BT-549 = tested on: BT-549
MDA-MB-435 = tested on: MDA-MB-435
IGROV-1 = tested on: IGROV-1
SW-620 = tested on: SW-620
A498 = tested on: A498
T47D = tested on: T47D
NCI-H226 = tested on: NCI-H226
M14 = tested on: M14
HL-60 = tested on: HL-60
HOP-62 = tested on: HOP-62
PC-3 = tested on: PC-3
OVCAR-8 = tested on: OVCAR-8
SR = tested on: SR
HT-29 = tested on: HT-29
Malme-3M = tested on: Malme-3M
NCI/ADR-RES = tested on: NCI/ADR-RES
SNB-75 = tested on: SNB-75
EKVX = tested on: EKVX
SN12C = tested on: SN12C
RXF 393 = tested on: RXF 393
LOX IMVI = tested on: LOX IMVI
KM12 = tested on: KM12
MDA-MB-231 = tested on: MDA-MB-231
UACC-257 = tested on: UACC-257
ACHN = tested on: ACHN
OVCAR-4 = tested on: OVCAR-4
UACC-62 = tested on: UACC-62
RPMI-8226 = tested on: RPMI-8226
HCT-15 = tested on: HCT-15
SK-MEL-2 = tested on: SK-MEL-2
NCI-H522 = tested on: NCI-H522
CAKI-1 = tested on: CAKI-1
HOP-92 = tested on: HOP-92
DU-145 = tested on: DU-145
OVCAR-5 = tested on: OVCAR-5
UO-31 = tested on: UO-31
NCI-H23 = tested on: NCI-H23

COC(=O)Cn1cnc2c(Cl)nc(Nc3ccccc3)nc21
GI50 (786-0): > 100 µM (inactive)
GI50 (A549): 79.6 µM (inactive)
GI50 (TK-10): > 100 µM (inactive)
GI50 (SK-MEL-28): 27.4 µM (inactive)
GI50 (OVCAR-3): 21.1 µM (inactive)
GI50 (HCT-116): 35.5 µM (inactive)
GI50 (Hs-578T): 20.9 µM (inactive)
GI50 (CCRF-CEM): 27.2 µM (inactive)
GI50 (NCI-H460): 32.8 µM (inactive)
GI50 (SK-MEL-5): 39 µM (inactive)
GI50 (HCC 2998): 6.52 µM (inactive)
GI50 (SF-539): > 100 µM (inactive)
GI50 (K562): 10.6 µM (inactive)
GI50 (MOLT-4): 26.5 µM (inactive)
GI50 (SK-OV-3): > 100 µM (inactive)
GI50 (SF-268): > 10 µM (inactive)
GI50 (U-251): 66.7 µM (inactive)
GI50 (SNB-19): 67.9 µM (inactive)
GI50 (MDA-N): 30.8 µM (inactive)
GI50 (COLO 205): 59.6 µM (inactive)
GI50 (SF-295): > 100 µM (inactive)
GI50 (MCF7): 76.2 µM (inactive)
GI50 (BT-549): 86.5 µM (inactive)
GI50 (MDA-MB-435): 26.7 µM (inactive)
GI50 (IGROV-1): 20.8 µM (inactive)
GI50 (SW-620): 65 µM (inactive)
GI50 (A498): > 100 µM (inactive)
GI50 (T47D): > 100 µM (inactive)
GI50 (NCI-H226): > 100 µM (inactive)
GI50 (M14): 29 µM (inactive)
GI50 (HL-60): 22.4 µM (inactive)
GI50 (HOP-62): > 100 µM (inactive)
GI50 (PC-3): 20.7 µM (inactive)
GI50 (OVCAR-8): 25.9 µM (inactive)
GI50 (SR): 40.1 µM (inactive)
GI50 (HT-29): > 100 µM (inactive)
GI50 (Malme-3M): 54.3 µM (inactive)
GI50 (NCI/ADR-RES): 73.3 µM (inactive)
GI50 (SNB-75): > 100 µM (inactive)
GI50 (EKVX): 27 µM (inactive)
GI50 (SN12C): 28.8 µM (inactive)
GI50 (RXF 393): 36.6 µM (inactive)
GI50 (LOX IMVI): 17.9 µM (inactive)
GI50 (KM12): > 100 µM (inactive)
GI50 (MDA-MB-231): 38 µM (inactive)
GI50 (UACC-257): 68.7 µM (inactive)
GI50 (ACHN): > 100 µM (inactive)
GI50 (OVCAR-4): 87.3 µM (inactive)
GI50 (UACC-62): 22.6 µM (inactive)
GI50 (RPMI-8226): > 100 µM (inactive)
GI50 (HCT-15): 21.4 µM
GI50 (SK-MEL-2): 16.4 µM (inactive)

CC(=O)NC(CO)C(=O)NC(Cc1ccc(O)cc1)C(=O)NCC(N)=O (stereo not drawn) (Ac-Ser-Tyr-Gly-NH2; configuration not given here)
GI50 (786-0): > 100 µM (inactive)
GI50 (A549): > 100 µM (inactive)
GI50 (TK-10): > 100 µM (inactive)
GI50 (SK-MEL-28): > 100 µM (inactive)
GI50 (OVCAR-3): > 100 µM (inactive)
GI50 (HCT-116): > 100 µM (inactive)
GI50 (CCRF-CEM): > 100 µM (inactive)
GI50 (NCI-H460): > 100 µM (inactive)
GI50 (SK-MEL-5): > 100 µM (inactive)
GI50 (HCC 2998): > 100 µM (inactive)
GI50 (SF-539): > 100 µM (inactive)
GI50 (K562): > 100 µM (inactive)
GI50 (MOLT-4): > 100 µM (inactive)
GI50 (SK-OV-3): > 100 µM (inactive)
GI50 (SF-268): > 100 µM (inactive)
GI50 (NCI-H522): 74.5 µM (inactive)
GI50 (CAKI-1): > 100 µM (inactive)
GI50 (HOP-92): > 100 µM (inactive)
GI50 (U-251): > 100 µM (inactive)
GI50 (SNB-19): > 100 µM (inactive)
GI50 (MDA-N): > 100 µM (inactive)
GI50 (COLO 205): > 100 µM (inactive)
GI50 (SF-295): > 100 µM (inactive)
GI50 (DU-145): > 100 µM (inactive)
GI50 (MCF7): > 100 µM (inactive)
GI50 (BT-549): > 100 µM (inactive)
GI50 (MDA-MB-435): > 100 µM (inactive)
GI50 (IGROV-1): > 100 µM (inactive)
GI50 (SW-620): > 100 µM (inactive)
GI50 (A498): > 100 µM (inactive)
GI50 (T47D): > 100 µM (inactive)
GI50 (NCI-H226): > 100 µM (inactive)
GI50 (M14): > 100 µM (inactive)
GI50 (HL-60): > 100 µM (inactive)
GI50 (HOP-62): > 100 µM (inactive)
GI50 (PC-3): > 100 µM (inactive)
GI50 (OVCAR-8): > 100 µM (inactive)
GI50 (SR): > 100 µM (inactive)
GI50 (HT-29): > 100 µM (inactive)
GI50 (Malme-3M): > 100 µM (inactive)
GI50 (NCI/ADR-RES): > 100 µM (inactive)
GI50 (SNB-75): > 100 µM (inactive)
GI50 (OVCAR-5): > 100 µM (inactive)
GI50 (EKVX): > 100 µM (inactive)
GI50 (SN12C): > 100 µM (inactive)
GI50 (RXF 393): > 100 µM (inactive)
GI50 (LOX IMVI): > 100 µM (inactive)
GI50 (KM12): > 100 µM (inactive)
GI50 (MDA-MB-231): > 100 µM (inactive)
GI50 (UO-31): > 100 µM (inactive)
GI50 (UACC-257): > 100 µM (inactive)
GI50 (ACHN): > 100 µM (inactive)
GI50 (OVCAR-4): > 100 µM (inactive)
GI50 (UACC-62): > 100 µM (inactive)
GI50 (RPMI-8226): > 100 µM (inactive)
GI50 (HCT-15): > 100 µM
GI50 (SK-MEL-2): > 100 µM (inactive)
GI50 (NCI-H23): > 100 µM (inactive)
